This is an account of results in patent publication US20060264418A1, “6-(2,2,2-Trifluoroethylamino-7-chloro-2,3,4,5-tetrahydro-1h-benzo[d] azephine as a 5-ht2c receptor agonist” (priority 2003, published 2006).

For test [1], the target named is alpha 1 adrenergic receptor. The experiment in a line: Radioligand receptor binding assay, alpha 1 adrenergic.
Test [2] has as its target alpha 2 adrenergic receptor. The experiment in a line: Radioligand receptor binding assay, alpha 2 adrenergic.
Test [3] deals with male Long-Evans rats. Put plainly: Calorimetric acute feeding assay. To be noted: oral dose. The format is in vivo, rat. The source says:
(§1) Animals: Obtain male Long-Evans rats (Harlan Sprague-Dawley, Indianapolis, Ind.) that are approximately one hundred-days old and have been maintained on a calorie rich diet since weaning (TD 95217, 40% calories from fat; Teklad, Madison, Wis.). House the rats individually with a 12 hr.:12 hr. light:dark cycle (lights on from about 22:00 hr. to about 10:00 hr.) and maintain rats on the same diet (TD 95217) with free access to water, for about 1-2 weeks to acclimate the rats to the environment. Dose rats orally with vehicle (10% acacia with 0.15% saccharin in water) once daily for at least 1 day (typically 1-2 days) to acclimate the rats to the procedures. Randomize the rats into groups so each group has similar mean body weights.
Calorimetric Acute Feeding Assay: At approximately 8:00 hr. on the day of assay, weigh each rat and transfer to individual chambers of an open circuit calorimetry system (Oxymax, Columbus Instruments International Corporation; Columbus, Ohio), with free access to food (pre-weighed) and water, and begin measuring VO2 and VCO2. At approximately 10:00 hr., dose rats orally with vehicle or test compound, return them to their calorimetry chambers, and continue measuring VO2 and VCO2 at regular time intervals (approximately hourly). At approximately 8:00 hr. the following day, measure rat body weight and the remaining food, assuming the difference in weight of food is equal to the mass of food consumed. Calculate the 24 hr. energy expenditure (EE) and respiratory quotient (RQ) essentially as described in Chen, Y. and Heiman, M. L., Regulatory Peptide, 92:113-119 (2000). […]
Calculate EE as the product of calorific value (CV) and VO2 per body weight (kg); where CV=3.815+1.232*RQ, and RQ is the ratio of CO2 produced (VCO2) to O2 consumed (VO2). Caloric intake is calculated as (mass of 24 hr. food intake in grams)×(physiological fuel value of the diet in kilocalorie/g) per kg of body weight.

For test [4], the system named is male Long-Evans rats. The experiment in a line: Acute feeding assay with a selective 5-HT2C receptor antagonist. It is filed as in vivo, rat. Particulars: antagonist 3 mg/Kg subcutaneous about 15 min. before oral test compound.
Excerpt: as §1
Acute Feeding Assay with a selective 5-HT2C receptor antagonist: The above calorimetric acute feeding assay is conducted with the following modifications. Open circuit calorimetry systems are not used and only the 24 hr. periodic food intake and body weight are measured. […]

In another test the test system is male NIH Swiss mice. Put plainly: Nestlet shredding. The format is in vivo, mouse. Particulars: 30 min. The source says:
Mice naturally will construct nests of material available in their living environment. Since this behavior is obsessive in nature, it has been used to model OCD (Mia Li, Denise Morrow and Jeffrey M. Witkin, “Decreases in nestlet shredding of mice by serotonin uptake inhibitors: comparison with marble burying”, Psychopharmacology, submitted Jul. 14, 2003). House experimentally-naïve male, NIH Swiss mice (Harlan Sprague-Dawley, Indianapolis, Ind.) weighing between 28-35 g in groups of 12 for at least three days prior to testing in a vivarium with a 12 hr. light/dark cycle. Conduct experiments during the light cycle in an experimental room with normal overhead fluorescent lighting. Dose mice with vehicle or test compound and after a specified pretreatment interval (generally 30 min.), place the mice individually in a 17×28×12 cm high plastic tub with about 5 mm sawdust shavings on the floor along with a pre-weighed multi-ply gauze pad (51 mm square). After 30 min., weigh the remainder of the gauze pad not removed by the mouse. Determine the weight of the gauze used for nestlet construction by subtraction. Compare the results for test compound treated mice to the results for vehicle control treated mice with Dunnett's test.
Clinically effective OCD treatment standard compounds suppress nestlet shredding at doses that are devoid of motor-impairing effects as measured by the rotorod test. […]

The test system of the next test is Wistar rats. The experiment in a line: Schedule-induced polydipsia. It is filed as in vivo, rat. The source says:
Food-deprived rats exposed to intermittent presentations of food will drink amounts of water that are far in excess of their normal daily intake and in excess of their intake when given all of their food at one time (Falk J L. “Production of polydipsia in normal rats by an intermittent food schedule”, Science 133: 195-196, (1961)). This excessive behavior is persistent and has been used to model OCD.
Maintain Wistar rats on a food restricted diet (to maintain 85% free feeding weight), but with free access to water. Train the rats in a behavioral testing chamber to press a lever to receive a food pellet under a fixed interval schedule, such that the rats are rewarded with a 45 mg food pellet the first time they press a lever after a 120 second interval has elapsed. The fixed interval is then reset to 120 seconds and the process repeated. Thus, during a 90 min. test session, the rats can earn a maximum of 45 pellets. The behavioral chamber is also equipped with a water bottle that is weighed before and after the session to determine the amount of water consumed.
Administer test compounds on Tuesdays and Fridays. Determine control day performances on Thursdays. Administer compounds either orally at 60 min. before the beginning of a test session, or subcutaneously at 20 min. before the beginning of a test session. Compare the rates of lever pressing and water consumption for each animal's performance during sessions after test compound treatment with that animal's performance during control sessions, expressed as a percent of the control rate. Average the individual percent of control rates for each dose and calculate the standard error of the mean.
The in vivo efficacy of 5HT2C compounds at the 5HT2C receptor was confirmed by the prevention of effects of the 5HT2C agonists on excessive drinking by co-administration of the 5HT2C receptor antagonist, 6-chloro-5-methyl-N-(2-(2-methylpyridin-3-yl-oxy)pyridin-5-yl)aminocarbonyl)-2,3-dihydroindole.

Usually IC50 stands for the concentration needed to halve the response being measured. Low readings indicate higher potency, high ones lower potency. `FC(F)(F)CNc1c(Cl)ccc2c1CCNCC2.O=C(O)CCC(=O)O` [Example 2, 7-Chloro-6-(2,2,2-trifluoroethylamino)-2,3,4,5-tetrahydro-1H-benzo[d]azepine Succinic Acid Salt]: the IC50 in test [1] and in test [2] was greater than 3 µM each time. For the same compound, the “24 hr. food intake” value in the test with male Long-Evans rats [3] (acute assays, rats on calorie rich diet) was “significantly reduce 24 hr. food intake”. Moreover, the “respiratory quotient (RQ)” value in the test with male Long-Evans rats [3] (acute, 24 hr. calorimetry) was “dose-dependently reduced RQ”. Also, the “energy expenditure during the light photoperiod” value in the test on male Long-Evans rats [3] (acute, indicative of resting metabolic rate) is “without significantly changing”. In the test on male Long-Evans rats [4], the “effect on 24 hr. food intake after pre-administration of the 5-HT2C receptor antagonist” value is “blocked”. In the test with male NIH Swiss mice, the “nestlet shredding (relative to motor effects, rotorod test)” value is “suppress nestlet shredding at doses that were devoid of motor-impairing effects”. For the same compound, the “schedule-induced polydipsia (excessive drinking)” value with Wistar rats (food restricted rats, 90 min. test session) is listed as “suppress schedule-induced polydipsia without producing notable changes in motor patterns, food intake, or behavior the following day”. In the test with Wistar rats (rats), the “suppression of excessive drinking with co-administration of the 5-HT2C receptor antagonist” value was “blocked”.
